The text below walks through data of US9700633B2, “Conjugates of water soluble polymer-amino acid oligopeptide-drug, preparation method and use thereof” (JENKEM TECHNOLOGY CO. LTD., TIANJIN BRANCH, priority 2013, dated 2017).

Counter-ions that a name gives are not always drawn. Like-named read-outs stand apart in the source and are kept apart here. Marks after values point to notes of the source that are not given here.

One data set concerns human lung cancer A549. The data set can be described thus: Xenografted tumor of human lung cancer A549 in nude mice. It is filed as in vivo, BALB/cA nude mice. The settings on record: iv. On the technique in general: In xenograft studies the graft and the host belong to different species.
The test system of data set [1] is human ovarian cancer SKOV-3. The experiment in a line: Xenografted tumor of human ovarian cancer SKOV-3 in nude mice. It is filed as in vivo, BALB/cA nude mice. The settings on record: iv; for number of animals with vanished tumor: d28, 6 mice per group.
The subject of the next data set is human colon cancer HT-29. The experiment in a line: Xenografted tumor of human colon cancer HT-29 in nude mice. In kind it is in vivo, BALB/cA nude mice. Particulars: iv.
For data set [2], the system named is human colon cancer HCT-116. The data set can be described thus: Xenografted tumor of human colon cancer HCT-116 in nude mice. It is filed as in vivo, BALB/cA nude mice. Particulars: iv. The method, then:
The diameter of subcutaneously xenografted tumor of the nude mice was measured by the caliper.

Data set [3] deals with human liver cancer plc/prf/5. Particulars: 10 mg/kg (based on rapamycin), i.v., Q2W × 2W.
Method: Plc/prf/5 cells were cultured in vitro in monolayer under conditions of MEM medium with supplement of 10% heat-inactivated fetal calf serum at 37° C. in an incubator at an atmosphere with 5% CO2. The cells were digested by using tyrisin-EDTA and passaged twice a week. Cells in exponential growth phase were collected, counted and used to inoculate.
1×10^7 plc/prf/5 tumor cells were suspended in 0.1 mL mixture (PBS: Matrigel=4:1), and were inoculated to the right scapula on the back of each NOD/SCID mouse. When the average tumor volume reached about 350 mm^3 at 24th days after the inoculation, the mice with undersized or oversized tumor volume were removed and the other mice were divided to groups randomly according to the tumor volume and then were administrated.
Setting [4] is: day 24 after the inoculation (grouping).

A word on the T/C: it is the ratio of treated to control. With `CCc1c2c(nc3ccc(OC(=O)N4CCC(N5CCCCC5)CC4)cc13)-c1cc3c(c(=O)n1C2)COC(=O)[C@]3(O)CC` [CPT-11, irinotecan hydrochloride], the “Body weight, Beginning” value in the data set on human lung cancer A549 (15 mg/kg, q3w × 3w) stood at 18.1 g; in data set [1] (15 mg/kg, q3w × 3w) it was 18.9 g; in data set [1] (45 mg/kg, qw × 3w), 19.7 g; in the data set with human colon cancer HT-29 (15 mg/kg, q3w × 3w), 18.2 g; in the data set with human colon cancer HT-29 (45 mg/kg, qw × 3w), 18.6 g. Moreover, the “RTV (mean ± SD)” value in the data set with human lung cancer A549 (15 mg/kg, q3w × 3w) was 7.67 ± 2.88**^,; with human lung cancer A549 (45 mg/kg, qw × 3w), 9.87 ± 4.87; in data set [1] (15 mg/kg, q3w × 3w) it was 7.39 ± 5.22**^,; in data set [1] (45 mg/kg, qw × 3w) it was 12.80 ± 3.91; in the data set with human colon cancer HT-29 (15 mg/kg, q3w × 3w) it was 3.79 ± 1.21*^,; in the data set with human colon cancer HT-29 (45 mg/kg, qw × 3w) it was 8.69 ± 3.43. The “RTV (mean ± SD)” value in data set [2] (15 mg/kg, q3w × 3w) is reported as 2.57 ± 0.66; in data set [2] (45 mg/kg, qw × 3w) it was 4.10 ± 0.73. In addition, the T/C in the data set on human lung cancer A549 (15 mg/kg, q3w × 3w) is reported as 53.26%; with human lung cancer A549 (45 mg/kg, qw × 3w), 68.54%; in data set [1] (15 mg/kg, q3w × 3w), 55.69%; in data set [1] (45 mg/kg, qw × 3w), 96.46%; in the data set on human colon cancer HT-29 (15 mg/kg, q3w × 3w), 27.27%; in the data set on human colon cancer HT-29 (45 mg/kg, qw × 3w) it was 62.52%. Further, the T/C came out at 39.84% in data set [2] (15 mg/kg, q3w × 3w) and 63.56% in data set [2] (45 mg/kg, qw × 3w). The “TV (mean ± SD) d0” value in the data set with human lung cancer A549 (15 mg/kg, q3w × 3w) is 112 ± 21 mm^3; with human lung cancer A549 (45 mg/kg, qw × 3w) it was 110 ± 15 mm^3; in data set [1] (15 mg/kg, q3w × 3w), 137 ± 33 mm^3; in data set [1] (45 mg/kg, qw × 3w) it was 136 ± 44 mm^3; in the data set with human colon cancer HT-29 (15 mg/kg, q3w × 3w) it was 121 ± 14 mm^3; with human colon cancer HT-29 (45 mg/kg, qw × 3w) it was 116 ± 13 mm^3. The “TV (mean ± SD) d0” value in data set [2] (15 mg/kg, q3w × 3w) was 129 ± 26 mm^3; in data set [2] (45 mg/kg, qw × 3w) it was 126 ± 25 mm^3. In addition, the “TV (mean ± SD) d28” value in the data set with human lung cancer A549 (15 mg/kg, q3w × 3w, d28) is recorded as 831 ± 305 mm^3; in data set [1] (15 mg/kg, q3w × 3w) it was 924 ± 443 mm^3; in data set [1] (45 mg/kg, qw × 3w), 1753 ± 878 mm^3; in data set [2] (15 mg/kg, q3w × 3w) it was 322 ± 37 mm^3; in data set [2] (45 mg/kg, qw × 3w), 512 ± 99 mm^3. The “Body weight, End” value in data set [1] (15 mg/kg, q3w × 3w) was 18.0 g; in the data set on human colon cancer HT-29 (15 mg/kg, q3w × 3w) it was 16.0 g; in the data set with human colon cancer HT-29 (45 mg/kg, qw × 3w), 16.2 g; in data set [2] (15 mg/kg, q3w × 3w), 16.6 g; in data set [2] (45 mg/kg, qw × 3w), 15.1 g. The “number of animals with vanished tumor” value in data set [1] (15 mg/kg, q3w × 3w) amounted to 0; in data set [1] (45 mg/kg, qw × 3w), 0.
Take “conjugate of methoxy PEG (20K) dipeptide of glutamic acid glycine-rapamycin [LPR-2]”: the “Delayed days of tumor growth (to 1000 mm^3)” value in data set [3] is above 7 days. In addition, the “Tumor volume (average ± standard error)” value in data set [3] (setting [4]) is 353 ± 54 mm^3; in data set [3] (day 27 after the inoculation) it was 404 ± 89 mm^3; in data set [3] (day 31 after the inoculation) it was 391 ± 72 mm^3; in data set [3] (day 34 after the inoculation), 456 ± 77 mm^3; in data set [3] (day 38 after the inoculation) it was 536 ± 77 mm^3.
Regarding “conjugate of Y shape PEG dipeptide of glutamic acid and glycine (number-average molecular weight of 40,000)-rapamycin [LPR-3]”, in data set [3], the “Delayed days of tumor growth (to 1000 mm^3)” value is listed as above 7 days. Also, the “Tumor proliferation rates T/C” value in data set [3] (compared with the solvent group, day 38 after the inoculation) worked out at 47%. For the same molecule, the “Tumor volume (average ± standard error)” value in data set [3] (setting [4]) was 358 ± 62 mm^3; in data set [3] (day 27 after the inoculation) it was 455 ± 85 mm^3; in data set [3] (day 31 after the inoculation), 569 ± 100 mm^3; in data set [3] (day 34 after the inoculation), 754 ± 151 mm^3; in data set [3] (day 38 after the inoculation), 848 ± 178 mm^3.
